Consider six compounds from patent US5808124A, “O- or S-substituted dihydronaphthalene derivatives having retinoid and/or retinoid antagonist-like biological activity” (Allergan, priority 1996, dated 1998).

In the assay the test system is ornithine decarboxylase (ODC). Nature of the assay: ODC assay: inhibition of TPA induction of ornithine decarboxylase (ODC) activity. It counts as biochemical. Conditions: for IC80: 80% inhibition in the ODC assay (TPA induction), printed in the IC60 column marked (IC80); for IC60: 60% inhibition in the ODC assay (TPA induction). The text has this: A classic measure of retinoic acid activity involves measuring the effects of retinoic acid on ornithine decarboxylase. The original work on the correlation between retinoic acid and decrease in cell proliferation was done by Verma & Boutwell, Cancer Research, 1977, 37,2196-2201. That reference discloses that ornithine decarboxylase (ODC) activity increased precedent to polyamine biosynthesis. It has been established elsewhere that increases in polyamine synthesis can be correlated or associated with cellular proliferation. Thus, if ODC activity could be inhibited, cell hyperproliferation could be modulated. Although all cases for ODC activity increases are unknown, it is known that 12-0-tetradecanoylphorbol-13-acetate (TPA) induces ODC activity. Retinoic acid inhibits this induction of ODC activity by TPA. […] Activity of exemplary compounds of the present invention in the above-described ODC assay is disclosed in Table 1 which provides the IC60 concentration for the respective exemplary compound. ("IC60 " is that concentration of the test compound which causes 60% inhibition in the ODC assay. By analogy, "IC80, for example, is that concentration of the test compound which causes 80% inhibition in the ODC assay.)

In the case of `CC1(C)CC=C(c2cccs2)c2ccc(C(=O)/C=C/c3ccc(C(=O)O)cc3)cc21` [Compound D34, 4-[3-oxo-3-(7,8-dihydro-5-(2-thienyl)-8.8-dimethyl-2-naphthalenyl) - 1-propenyl]-benzoic acid], the IC80 is 4.3 nmols.

`CCO/N=C1\CCC(C)(C)c2ccc(/C(C)=C/C=C/C(C)=C/C(=O)OCC)cc21` [Compound C22b, Ethyl 7-[4,4-dimethyl-3,4-dihydro-1(2H)-anti-(O-ethyl oxime)-naphth-7-yl]3,7-dimethyl-hepta-2(E),4(E),6(E)-trienoate] displayed an IC60 of 10 nmols. `CCOC(=O)c1ccc(/C=C/c2ccc3c(c2)C2(CCC3(C)C)SCCCS2)cc1` [Compound A23] displayed an IC60 of 43.7 nmols. In the case of `CCO/N=C1\CCC(C)(C)c2ccc(/C=C/c3ccc(C(=O)OCC)cc3)cc21` [Compound A5, ethyl (E)-4-[2-(5,5-dimethyl-5,6-dihydro-8(7H)-anti-(O-ethyl oxime)-naphthalen-2-yl)ethenyl]-benzoate], the IC60 amounted to 10.3 nmols. With `CCOC(=O)c1ccc(/C=C/c2ccc3c(c2)C(Sc2ccccc2)=CCC3(C)C)cc1` [Compound A16, ethyl (E)-4-[2-(5,6-dihydro-5,5-dimethyl-8-(phenylthio)-naphthalen-2-yl)ethenyl]benzoate], the IC80 was 4.3 nmols. As to `CCOC(=O)c1ccc(/N=N/c2ccc3c(c2)C(OCOC)CCC3(C)C)cc1` (racemic) [Compound D6, (+/-) ethyl 4-[(5,5-dimethyl-8-(methoxymethyloxy)-5,6,7,8-tetrahydronaphthalen-2-yl)azo]benzoate], the IC60 is on record as 1.9 nmols.
